The source of these data is EP4678638A1, “NEW E3 UBIQUITIN LIGASE LIGAND, PROTEIN DEGRADATION AGENT AND USE THEREOF” (priority 2023, dated 2024).

Assay [1] deals with H1975. The assay is described as follows: CCK-8 proliferation, NCI-H1975 (H1975). It counts as cell-based, Human. As to conditions: Homo sapiens, NCI-H1975; CCK-8; 96 hours; read-out: Inhibitory activity (IC50) on tumor cell proliferation, H1975. As for the experimental part:
(§1) The tumor cells used herein were cultured in a cell culture medium listed in table A1 at 37°C in an incubator with 5% CO2. Prior to experimentation, all cell lines used were correctly identified by STR profiling, and tested negative for mycoplasma contamination using a mycoplasma detection kit through routine screenings. Table A1. Tumor cells and cell culture medium used in the present disclosure
(§2) IC50 values of the compounds of the present disclosure (including the compounds in Table 1, and compounds of examples) were measured using the Meilun Cell Counting Kit-8 kit from Dalian Meilun Biotech Co., Ltd. Assay details are as follows: tumor cells were seeded in a 96-well plate at a density listed in Table A2. After 24h, 100 µL of the inoculated cells were treated with 0.5µL of the compounds of the present disclosure (including the compounds in Tables 1 and 2, and compounds of examples) at 10 different successively decreasing concentrations (starting at the highest concentration of 10µM; 5-fold serial dilutions). After the cells were treated with the compounds of the present disclosure for a period of time, the cell viability detection reagent was added to the culture medium for cell viability assessment according to the instructions provided with the CCK-8 kit. […] The growth inhibition of the compounds of the present disclosure on cells was plotted by Prism Graphpad software, and the IC50 values of the compounds of the present disclosure were calculated therefrom. […] Seeding protocol and treatment time for tumor cells

In assay [2] the test system is MCF7. The assay is described as follows: CCK-8 proliferation, MCF7 (MCF-7). It is filed as cell-based. The settings on record: Homo sapiens, MCF7; CCK-8; read-out: Inhibitory activity (IC50) on tumor cell proliferation, MCF7. As for the experimental part: as §1, §2

pIC50: −log10 of the molar value.

On to `O=C1CCN(c2cccc(CN3CCC(N4CCN(c5ccc(-c6cc(F)c7c(c6)C(=O)N(C(C(=O)Nc6nccs6)c6ncn8c6CCC8)C7)cc5)CC4)CC3)c2)C(=O)N1` (centres unmarked) [GT-06328, 2-(6,7-dihydro-5H-pyrrolo[1,2-c]imidazol-1-yl)-2-(6-(4-(4-(1-(3-(2,4-dioxotetrahydropyrimidin-1(2H)-yl)benzyl)piperidin-4-yl)piperazin-1-yl)phenyl)-4-fluoro-1-oxoisoindolin-2-yl)-N-(thiazol-2-yl)acetamide], for which the pIC50 in assay [1] is 8.00 to 9.00.

Turning to `CC(=O)c1c(C)c2cnc(Nc3ccc(N4CCN(Cc5cccc(N6CCC(=O)NC6=O)c5)CC4)cn3)nc2n(C2CCCC2)c1=O` [GT-06577, 1-(3-((4-(6-((6-acetyl-8-cyclopentyl-5-methyl-7-oxo-7,8-dihydropyrido[2,3-d]pyrimidin-2-yl)amino)pyridin-3-yl)piperazin-1-yl)methyl)phenyl)dihydropyr imidine-2,4(1H,3H)-dione], the pIC50 in assay [2] is 6.30 to 7.00.

As to `O=C1CCN(c2cc(CN3CCN(c4ccc(-c5cc(F)c6c(c5)C(=O)N(C(C(=O)Nc5nccs5)c5ncn7c5CCC7)C6)cc4)CC3)c(F)cn2)C(=O)N1` (centres unmarked) [GT-07378, 2-(6,7-dihydro-5H-pyrrolo[1,2-c]imidazol-1-yl)-2-(6-(4-(4-((2-(2,4-dioxotetrahydropyrimidin-1(2H)-yl)-5-fluoropyridin-4-yl)methyl)piperazin-1-yl)phenyl)-4-fluoro-1-oxoisoindolin-2-yl)-N-(thiazol-2-yl)acetamide], the pIC50 in assay [1] was 8.00 to 9.00.

In the case of `O=C1CCN(c2cc(CN3CCN(c4ccc(-c5cc(F)c6c(c5)C(=O)N(C(C(=O)Nc5nccs5)c5ncn7c5CCC7)C6)cc4)CC3)ccn2)C(=O)N1` (centres unmarked) [GT-07379, 2-(6,7-dihydro-5H-pyrrolo[1,2-c]imidazol-1-yl)-2-(6-(4-(4-((2-(2,4-dioxotetrahydropyrimidin-1(2H)-yl)pyridin-4-yl)methyl)piperazin-1-yl)phenyl)-4-fluoro-1-oxoisoindolin-2-yl)-N-(thiazol-2-yl)acetamide], the pIC50 in assay [1] is 8.00 to 9.00.

As to `O=C1CCN(c2cncc(CN3CCN(c4ccc(-c5cc(F)c6c(c5)C(=O)N(C(C(=O)Nc5nccs5)c5ncn7c5CCC7)C6)cc4)CC3)c2)C(=O)N1` (centres unmarked) [GT-07380, 2-(6,7-dihydro-5H-pyrrolo[1,2-c]imidazol-1-yl)-2-(6-(4-(4-((5-(2,4-dioxotetrahydropyrimidin-1(2H)-yl)pyridin-3-yl)methyl)piperazin-1-yl)phenyl)-4-fluoro-1-oxoisoindolin-2-yl)-N-(thiazol-2-yl)acetamide], the pIC50 in assay [1] was 8.00 to 9.00.

For `O=C1CCC(c2ccc(CN3CCN(c4ccc(-c5cc(F)c6c(c5)C(=O)N(C(C(=O)Nc5nccs5)c5ncn7c5CCC7)C6)cc4)CC3)nc2)C(=O)N1` (centres unmarked) [GT-07381, 2-(6,7-dihydro-5H-pyrrolo[1,2-c]imidazol-1-yl)-2-(6-(4-(4-((5-(2,6-dioxopiperidin-3-yl)pyridin-2-yl)methyl)piperazin-1-yl)phenyl)-4-fluoro-1-oxoisoindolin-2-yl)-N-(thiazol-2-yl)acetamide], the pIC50 in assay [1] was 8.00 to 9.00.

Regarding `CN(Cc1cc(N2CCC(=O)NC2=O)ncc1F)C1CCN(c2ccc(-c3cc(F)c4c(c3)C(=O)N(C(C(=O)Nc3nccs3)c3ncn5c3CCC5)C4)cc2)CC1` (centres unmarked) [GT-07382, 2-(6,7-dihydro-5H-pyrrolo[1,2-c]imidazol-1-yl)-2-(6-(4-(4-(((2-(2,4-dioxotetrahydropyrimidin-1(2H)-yl)-5-fluoropyridin-4-yl)methyl)(methyl)amino)piperidin-1-yl)phenyl)-4-fluoro-1-oxoisoindolin-2-yl)-N-(thiazol-2-yl)acetamide], the pIC50 in assay [1] was 7.30 to 8.00.

With `CN(Cc1cncc(N2CCC(=O)NC2=O)c1)C1CCN(c2ccc(-c3cc(F)c4c(c3)C(=O)N(C(C(=O)Nc3nccs3)c3ncn5c3CCC5)C4)cc2)CC1` (centres unmarked) [GT-07384, 2-(6,7-dihydro-5H-pyrrolo[1,2-c]imidazol-1-yl)-2-(6-(4-(4-(((5-(2,4-dioxotetrahydropyrimidin-1(2H)-yl)pyridin-3-yl)methyl)(methyl)amino)piperidin-1-yl)phenyl)-4-fluoro-1-oxoisoindolin-2-yl)-N-(thiazol-2-yl)acetamide], the pIC50 in assay [1] is 8.00 to 9.00.

`CN(Cc1ccc(C2CCC(=O)NC2=O)cn1)C1CCN(c2ccc(-c3cc(F)c4c(c3)C(=O)N(C(C(=O)Nc3nccs3)c3ncn5c3CCC5)C4)cc2)CC1` (centres unmarked) [GT-07385, 2-(6,7-dihydro-5H-pyrrolo[1,2-c]imidazol-1-yl)-2-(6-(4-(4-(((5-(2,6-dioxopiperidin-3-yl)pyridin-2-yl)methyl)(methyl)amino)piperidin-1-yl)phenyl)-4-fluoro-1-oxoisoindolin-2-yl)-N-(thiazol-2-yl)acetamide]: the pIC50 in assay [1] was 8.00 to 9.00.

`O=C1CCN(c2cc(CN3C[C@H]4C[C@@H]3CN4c3ccc(-c4cc(F)c5c(c4)C(=O)N(C(C(=O)Nc4nccs4)c4ncn6c4CCC6)C5)cc3)ccn2)C(=O)N1` (stereo partly drawn) [GT-07387, 2-(6,7-dihydro-5H-pyrrolo[1,2-c]imidazol-1-yl)-2-(6-(4-((1R,4R)-5-((2-(2,4-dioxotetrahydropyrimidin-1(2H)-yl)pyridin-4-yl)methyl)-2,5-diazabicyclo[2.2.1]heptan-2-yl)phenyl)-4-fluoro-1-oxoisoindolin-2-yl)-N-(thiazol-2-yl)acetamide]: the pIC50 in assay [1] was 8.00 to 9.00.

On to `O=C1CCC(c2cc(CN3CCN(c4ccc(-c5cc(F)c6c(c5)C(=O)N(C(C(=O)Nc5nccs5)c5ncn7c5CCC7)C6)cc4)CC3)ccn2)C(=O)N1` (centres unmarked) [GT-07392, 2-(6,7-dihydro-5H-pyrrolo[1,2-c]imidazol-1-yl)-2-(6-(4-(4-((2-(2,6-dioxopiperidin-3-yl)pyridin-4-yl)methyl)piperazin-1-yl)phenyl)-4-fluoro-1-oxoisoindolin-2-yl)-N-(thiazol-2-yl)acetamide], for which the pIC50 in assay [1] is 8.00 to 9.00.

Take `O=C1CCC(c2cncc(CN3CCN(c4ccc(-c5cc(F)c6c(c5)C(=O)N(C(C(=O)Nc5nccs5)c5ncn7c5CCC7)C6)cc4)CC3)c2)C(=O)N1` (centres unmarked) [GT-07472, 2-(6,7-dihydro-5H-pyrrolo[1,2-c]imidazol-1-yl)-2-(6-(4-(4-((5-(2,6-dioxopiperidin-3-yl)pyridin-3-yl)methyl)piperazin-1-yl)phenyl)-4-fluoro-1-oxoisoindolin-2-yl)-N-(thiazol-2-yl)acetamide]: the pIC50 in assay [1] was 8.00 to 9.00.

For `O=C1CCC(Nc2ncccc2CN2CCN(c3ccc(-c4cc(F)c5c(c4)C(=O)N(C(C(=O)Nc4nccs4)c4ncn6c4CCC6)C5)cc3)CC2)C(=O)N1` (centres unmarked) [GT-07489, 2-(6,7-dihydro-5H-pyrrolo[1,2-c]imidazol-1-yl)-2-(6-(4-(4-((2-((2,6-dioxopiperidin-3-yl)amino)pyridin-3-yl)methyl)piperazin-1-yl)phenyl)-4-fluoro-1-oxoisoindolin-2-yl)-N-(thiazol-2-yl)acetamide], the pIC50 in assay [1] is 7.30 to 8.00.

Turning to `O=C1CCC(c2cnc(F)c(CN3CCN(c4ccc(-c5cc(F)c6c(c5)C(=O)N(C(C(=O)Nc5nccs5)c5ncn7c5CCC7)C6)cc4)CC3)c2)C(=O)N1` (centres unmarked) [GT-07490, 2-(6,7-dihydro-5H-pyrrolo[1,2-c]imidazol-1-yl)-2-(6-(4-(4-((5-(2,6-dioxopiperidin-3-yl)-2-fluoropyridin-3-yl)methyl)piperazin-1-yl)phenyl)-4-fluoro-1-oxoisoindolin-2-yl)-N-(thiazol-2-yl)acetamide], in assay [1], the pIC50 is 8.00 to 9.00.

As for `CN(Cc1cc(C2CCC(=O)NC2=O)cnc1F)C1CCN(c2ccc(-c3cc(F)c4c(c3)C(=O)N(C(C(=O)Nc3nccs3)c3ncn5c3CCC5)C4)cc2)CC1` (centres unmarked) [GT-07560, 2-(6,7-dihydro-5H-pyrrolo[1,2-c]imidazol-1-yl)-2-(6-(4-(4-(((5-(2,6-dioxopiperidin-3-yl)-2-fluoropyridin-3-yl)methyl)(methyl)amino)piperidin-1-yl)phenyl)-4-fluoro-1-oxoisoindolin-2-yl)-N-(thiazol-2-yl)acetamide], the pIC50 in assay [1] was 8.00 to 9.00.

Take `CN(Cc1cccnc1NC1CCC(=O)NC1=O)C1CCN(c2ccc(-c3cc(F)c4c(c3)C(=O)N(C(C(=O)Nc3nccs3)c3ncn5c3CCC5)C4)cc2)CC1` (centres unmarked) [GT-07561, 2-(6,7-dihydro-5H-pyrrolo[1,2-c]imidazol-1-yl)-2-(6-(4-(4-(((2-((2,6-dioxopiperidin-3-yl)amino)pyridin-3-yl)methyl)(methyl)amino)piperidin-1-yl)phenyl)-4-fluoro-1-oxoisoindolin-2-yl)-N-(thiazol-2-yl)acetamide]: in assay [1], the pIC50 was 8.00 to 9.00.

In the case of `O=C1CCC(c2cnc(F)c(CN3C[C@H]4C[C@@H]3CN4c3ccc(-c4cc(F)c5c(c4)C(=O)N(C(C(=O)Nc4nccs4)c4ncn6c4CCC6)C5)cc3)c2)C(=O)N1` (stereo partly drawn) [GT-07562, 2-(6,7-dihydro-5H-pyrrolo[1,2-c]imidazol-1-yl)-2-(6-(4-((1R,4R)-5-((5-(2,6-dioxopiperidin-3-yl)-2-fluoropyridin-3-yl)methyl)-2,5-diazabicyclo[2.2.1]heptan-2-yl)phenyl)-4-fluoro-1-oxoisoindolin-2-yl)-N-(thiazol-2-yl)acetamide], the pIC50 in assay [1] was 7.30 to 8.00.
